Test results taken from US20160375127A1, “Method of producing an inactivated lentivirus, especially HIV, vaccine, kit and method of use” (LABORATOIRE BIODIM, priority 2013, published 2016).
Entries after “also recorded” stand apart in the source; their conditions may differ.

Legend:
HIV-1 LAV [1] = experiment: p24 titration of virus harvested from treated HeLa-LAV producer cells; type: cell-based; conditions: HeLa-LAV cells treated during virus production
Excerpt: (§1) In order to examine the infectivity of viruses produced in the presence of these various compounds, the supernatants were harvested, titrated for viral protein p24 release using the Alliance HIV-1 p24 Antigen ELISA (PerkinElmer, http://www.perkinelmer.com/) and titrated to measure the quantity of infectious particles per ml by infecting TZM-bl indicator cells (from the AIDS reagent program, NIH) expressing luciferase under a Tat-dependent promoter. Alternatively for titration of infectious particles, target cells for HIV-1 infection such as MT4 cells were used.
as §1, with “2—Production of Viral particles in the presence of compounds. […] In” for “In”, “are” for “were”, “harvested, stored at −80° C. and” for “harvested,”, “cells” for “cells (from the AIDS reagent program, NIH)”, “are used as described above in 1a.” for “were used.”

HIV-1 NL4-3 [2] = experiment: Infectivity of NL4-3 virus from treated transfected 293T cells on MT4 cells, CellTiter-Glo; type: cell-based; conditions: 293T transfection, compound 48 hours, supernatant diluted 2000 times, MT4 viability
Procedure: FIG. 4: Infectivity of wt NL4-3 viruses harvested from 293T transfected cells after treatment with the indicated compounds and tested by infection of MT4 cells using the cytopathic assay CellTiter-Glo®.
2 hours after transfection indicated compounds were added during virus production for 48 hours at the indicated concentrations. […] Viruses released in cell supernatants were harvested and tested for virus production by p24 assay, and virus infectivity by infection of MT4 cells and cytophatic assay using CellTiter-Glo® (Promega) according manufacturer's instructions.
293T cells (2.2 10^6 cells) are transfected with plasmids harboring full length cloned HIV proviral DNA such as pNL4-3 or any other HIV proviral clone including autologous HIV molecular clones using DNA transfection reagent such as X-tremeGENE 9 reagent (Roche). Cells are washed 3 h later, trypsinized and diluted at 0.3 10^6 cells per ml. 5 10^5 cells in 1.6 ml fresh culture media are distributed into 6 wells plate and the volume is adjusted to 2 ml by adding 0.4 ml of media containing compounds and DMSO per well, or DMSO only as control. As reference compounds capable to fully inactivate HIV during virus production by producer cells, Protease inhibitors such as Indinavir or Saquinavir are used as additional controls. Final concentration for each compound, including reference protease inhibitor compounds, is kept equivalent to 5 times its EC50 concentration previously calculated into a multiple round assay as in (a) and DMSO is kept at 0.5% final concentration. Supernatants containing HIV virions are collected 48 h post-transfection and stored at −80° C. All Viral stocks are quantified for p24 antigen using the Alliance HIV-1 p24 Antigen ELISA (PerkinElmer, http://www.perkinelmer.com/) and titrated to measure the quantity of infectious particles per ml by infecting TZM-bl indicator cells.
Usually 1/2000 dilution of the virus stock is used to infect MT4 target cells. Productive HIV-1 infection is determined after 5 days using the CellTiter-Glo® luminescent reagent (Promega, France) to quantify MT4 cell viability. Alternatively, productive infection can be estimated by quantitation of p24 antigen as described in paragraph 2 above. Full inactivation of the virus stock by compounds is estimated by results obtained in the presence of compound compared on the one hand to DMSO alone which indicates the 100% infectious virus stock (0% inactivation), and on the other hand to Protease inhibitor treatment which indicates the 100% virus stock inactivation.

HIV-1 NL4-3 [3] = experiment: Western blot of NL4-3 virus lysates with anti-p24, anti-RT and anti-IN antibodies; type: cell-based; conditions: anti-IN, versus wt virus treated with DMSO
HIV-1 LAV [4] = experiment: Infectivity of virions from treated HeLa-LAV cells on MT4 cells, cytopathic assay CellTiter-Glo; type: cell-based; conditions: virus stock diluted up to 2000 times
Excerpt: as §1
Usually 1/2000 dilution of the virus stock is used to infect MT4 target cells. Productive HIV-1 infection is determined after 5 days using the CellTiter-Glo® luminescent reagent (Promega, France) to quantify MT4 cell viability. Alternatively, productive infection can be estimated by quantitation of p24 antigen as described in paragraph 2 above.

HIV-1 LAV [5] = experiment: Infectivity of virions from treated HeLa-LAV cells on TZM indicator cells, luciferase assay; type: cell-based
Excerpt: as §1
as §1, with “2—Production of Viral particles in the presence of compounds. […] In” for “In”, “are” for “were”, “harvested, stored at −80° C. and” for “harvested,”, “cells” for “cells (from the AIDS reagent program, NIH)”, “are used as described above in 1a.” for “were used.”

HIV-1 integrase = target: T1, HIV-1 integrase (Human immunodeficiency virus type 1 group M subtype B, UniProt P12497); experiment: Size exclusion chromatography of recombinant HIV-1 integrase on Superdex 200 PC 3.2/30; type: biochemical; conditions: untreated IN elutes as dimer, 64 KD MW; 8 μM IN with 20 μM compound
T1 construct: Superdex 200 16/600 PG column for IN full length; made in house
Procedure: Multimerization of HIV-1 Integrase upon treatment with inactivating compounds was performed using size exclusion chromatography on a Superdex 200 PC 3.2/30 column (GE Healthcare), as described in the method section. Aldolase (158,000 MW), Conalbumin (75,000 MW), Carbonic Anhydrase (29,000 MW), and Ribonuclease A (13,700 MW) were used as protein markers for calibration.
was performed on a Superdex 200 PC 3.2/30 column (GE Healthcare) using an AKTA chromatography system (GE Healthcare) at 0.04 mL/min at room temperature. 20 μL of sample was injected on the column previously equilibrated in Integrase buffer (50 mM HEPES pH 7.5 containing 1M NaCl, 7 mM CHAPS, 5 mM MgCl2, 10% glycerol). 1 μM Compound was added to the mobile phase in order to avoid integrase-inhibitor dissociation during the separation.

HIV-1 Gag = experiment: Western blot of Gag maturation and CA p24 content in producer cell lysates and virions, anti-p24 antibody; type: cell-based; conditions: HeLa-LAV cell lysates and defective virions
HIV-1 NL4-3 [6] = experiment: CA p24 titration of NL4-3 virus produced by 293T cells in the presence of compound; type: cell-based; conditions: 1 μM compound in 0.5% DMSO, 48 hours; untreated virus 19.6 μg/ml
Procedure: The assay shown in FIG. 6 measures the concentration of whole virus particles (p24 ng/ml on the Y axis) captured on plates coated with various anti-HIV antibodies at three different concentrations as indicated in the X axis. […] As indicated, two different dilutions of each of these virus preparations were incubated in the antibody-coated plates with the indicated antibodies, for 1 hour. Unbound virions were removed by washing. Virions captured by the indicated antibodies were lysed and quantitated by p24 assay by ELISA (Innogenetics/Ingen, Ghent Belgium). The anti-HIV antibodies used were a neutralizing polyclonal IgG F6 Gri/Ii, an irrelevant IgG F6 Neg (negative control), two monoclonal anti-HIV Env antibodies, 2G12 (neutralizing) and 4B3 (non-neutralizing), and an irrelevant monoclonal antibody (Synagis) as negative control.
(§2) To do so, HIV-1 NL4-3 virus was produced upon 293T cell transfection using Opti-Mem® reagent (Life Technologies) according manufacturer's instructions. […] Cell supernatants containing virus were ultracentrifuged through sucrose cushion. Virus pellets were resuspended in cell culture medium, aliquoted and titrated for CA p24 amount using anti-p24 antibody (Innotest HIV antigen/mAB Immunogenetics/Ingen Ghent, Belgium or Alliance® HIV-I p24 ELISA kit PerkinElmer).

HIV-1 NL4-3 [7] = experiment: Check of inactivation: multiple-round infection assay of MT4 human cells during five days; type: cell-based; conditions: virus produced with 1 μM compound
Excerpt: as §2

`CC(C)(C)NC(=O)[C@@H]1C[C@@H]2CCCC[C@@H]2CN1C[C@@H](O)[C@H](Cc1ccccc1)NC(=O)[C@H](CC(N)=O)NC(=O)c1ccc2ccccc2n1` [Saquinavir, reference compound] was tested, and the “amount of p24 produced” value (HIV-1 LAV [1]) was 30%, the “inactivation of NL4-3 virus produced in the presence of compound” value (“inactivation of NL4-3 virus produced” for short) (HIV-1 NL4-3 [2]) was “inactivated” and the “protein content and maturation profile of treated virus” value (“protein content and maturation profile” below) (HIV-1 NL4-3 [3]) was “strong defect in maturation”. For the same compound, the “protein content and maturation profile” value (HIV-1 NL4-3 [3]; listed as saquinavir) was “strong defect in maturation and absence of RT and IN mature proteins”, the “infectivity / cytopathic effect of viruses produced in the presence of compound” value (“infectivity / cytopathic effect” below) (HIV-1 LAV [4]) was “totally impaired for such cytopathic effect” and the “infectivity of viruses produced in the presence of compound” value (“infectivity of viruses produced” for short) (HIV-1 LAV [5]) was “non infectious”.

For `Cc1nc2cc(C(N)=O)ccc2c(-c2ccc3c(c2)CCCO3)c1C(OC(C)(C)C)C(=O)O` (stereo not drawn) [MUT145240], the “MW at which HIV-1 integrase is eluted (IN tetramer)” value (HIV-1 integrase) was 130 KD MW.

In the case of `Cc1nc2cc(-c3cccnc3)ccc2c(-c2ccc3c(c2)CCCO3)c1C(OC(C)(C)C)C(=O)O` (stereo not drawn) [MUT145212], the “perturbation of Gag maturation and CA p24 content” value (from here on “perturbation”) (HIV-1 Gag) is reported as “could not detect any perturbation of Gag maturation and CA p24 content”, the “amount of p24 produced” value (HIV-1 LAV [1]; versus DMSO) is reported as “comparable to that in the presence of DMSO” and the “MW at which HIV-1 integrase is eluted (IN tetramer)” value (HIV-1 integrase) is reported as 130 KD MW. The “infectivity / cytopathic effect” value (HIV-1 LAV [4]) was “totally impaired for such cytopathic effect” and the “infectivity of viruses produced” value (HIV-1 LAV [5]) was “non-infectious”.

With `Cc1nnc(C(=O)NC(C)(C)c2nc(C(=O)NCc3ccc(F)cc3)c(O)c(=O)n2C)o1` [Raltegravir, reference compound] the “inactivation of NL4-3 virus produced” value (HIV-1 NL4-3 [2]) was “no effect”, the “infectivity / cytopathic effect” value (HIV-1 LAV [4]) was “fully infectious” and the “infectivity of viruses produced” value (HIV-1 LAV [5]) was “comparable to viruses produced in the presence of DMSO”.

For `Cc1sc(-c2ccncc2)c(C2=CCC(C)(C)CC2)c1[C@H](OC(C)(C)C)C(=O)O` [MUT148237], the “inactivation of NL4-3 virus produced” value (HIV-1 NL4-3 [2]) was “inactivated”, the “protein content and maturation profile” value (HIV-1 NL4-3 [3]) was “protein content and maturation profile identical to wt virus; also recorded: exactly the same profile, with normal protein content and protein maturation than fully infectious virus” and the “CA p24 titer of virus inactivated during production” value (HIV-1 NL4-3 [6]) was 17.6 µg/mL. The “excess of inactivated virus over untreated virus needed to infect 100,000 cells” value (HIV-1 NL4-3 [7]) was “more than 10,000 times”, the “extent of virus inactivation” value (HIV-1 NL4-3 [7]) was greater than 99.99% and the “amount of p24 of virus supernatant needed for infection of 50% of MT4 cells” value (HIV-1 NL4-3 [7]; untreated virus 0.11 pg) was 5,139 pg.

With `Cc1nc2c(-c3cccc(C(N)=O)c3)cccc2c(-c2ccc3c(c2)CCCO3)c1C(OC(C)(C)C)C(=O)O` (stereo not drawn) [MUT145227] the “perturbation” value (HIV-1 Gag) was “could not detect any perturbation of Gag maturation and CA p24 content”, the “amount of p24 produced” value (HIV-1 LAV [1]; versus DMSO) was “comparable to that in the presence of DMSO” and the “infectivity / cytopathic effect” value (HIV-1 LAV [4]) was “totally impaired for such cytopathic effect”. For the same compound, the “infectivity of viruses produced” value (HIV-1 LAV [5]) was “non-infectious”.

In the case of `Cc1nc2c(c(-c3ccc4c(c3)CCCO4)c1C(OC(C)(C)C)C(=O)O)CCCC2` (stereo not drawn) [MUT145509], the “perturbation” value (HIV-1 Gag) is reported as “could not detect any perturbation of Gag maturation and CA p24 content”, the “amount of p24 produced” value (HIV-1 LAV [1]; versus DMSO) is reported as “comparable to that in the presence of DMSO” and the “inactivation of NL4-3 virus produced” value (HIV-1 NL4-3 [2]) is reported as “inactivated”. For the same compound, the “infectivity / cytopathic effect” value (HIV-1 LAV [4]) was “totally impaired for such cytopathic effect” and the “infectivity of viruses produced” value (HIV-1 LAV [5]) was “non-infectious”.
